Measured values from publication PMC3083654, “Cytotoxic and Antimicrobial Activity of Pseudopterosins and seco-Pseudopterosins Isolated from the Octocoral Pseudopterogorgia elisabethae of San Andrés and Providencia Islands (Southwest Caribbean Sea)” (Marine Drugs, 2011).
Where two headings read alike, the source gives them in different places.

Legend:
[1] = test system: HCT116 (colorectal cancer); assay: MTT cytotoxic assay, HCT116; assay type: cell-based; settings: Homo sapiens, HCT-116, HCT116, 48 h
Protocol: (§1) The cell lines HeLa (cervical cancer), PC-3 (prostate cancer), HCT116 (colorectal cancer), MCF-7 (breast cancer) and normal human cell line BJ (skin fibroblasts) were used and maintained in DMEM with 5% of FBS and gentamicin 50 μg/mL. Cultures were held in 75 cm^2 culture flasks at 37 °C, 5% CO2 and 100% relative humidity, changing media at least twice a week.
(§2) Cells were harvested, counted, and transferred into 96 well plates and incubated for 24 h prior to the addition of the test compounds. Test sample solutions (10 μL) at the desired dilutions were added to the wells containing the cells and incubated for 48 h. Microtitration colorimetric method of MTT reduction was used to determine surviving cells at the end of the treatment period.
(§3) A solution of MTT (0.5 mg/mL) was prepared in PBS and 100 μL of this solution was added to each well after the removal of 100 μL of treatment solution. The plates were incubated at 37 °C for 4 h. The solution in each well, containing media, unmetabolized MTT, and dead cells, was removed by suction and 100 μL of DMSO was added to each well. The DMSO was mixed by pipetting and optical density was recorded using a BioTek Synergy HT microplate reader to measure the absorbance at 570 nm. Percentages of cell survival relative to vehicle control wells (wells containing only cells and DMSO) were calculated.
(§4) Stock solutions (5 mg/mL) were prepared by dissolving pure compounds in DMSO and storing at 4 °C. Serial dilutions with culture media were prepared just prior to addition to test plates. The concentration of DMSO in wells was consistent across dilutions at 0.38% v/v. Staurosporine was used as the positive control and vehicle (DMSO + media) as blank. Control and test compounds (PsG, PsP, PsQ, PsS, PsT, PsU, 3-O-Ac-PsU, seco-PsJ, seco-PsK and IMNGD) were assayed in duplicate for each concentration and replicated for each cell line at concentrations of 5000, 1000, 500, 100, 50, 10, 5 and 1 nM for staurosporine and 0.1, 0.5, 1.0, 2.5, 5.0, 7.5, 10.0, and 20.0 μg/mL for compounds.
(§5) Data were normalized and analyzed using non-linear regression to elucidate IC50 values from sigmoidal dose-response curves. Comparison between cell lines and microorganisms used extra sum-of-squares F test to evaluate IC50 between data sets. P < 0.05 was considered as indicative of significance using GraphPad Software, Prism V. 5.0.

BJ (skin fibroblasts) = assay: MTT cytotoxic assay, normal BJ cells; assay type: cell-based, human; settings: 48 h
Protocol: as §1, §2, §3, §4, §5

[2] = test system: Enterococcus faecalis ATCC 10741; assay: Antimicrobial microdilution assay, E. faecalis; assay type: cell-based
Protocol: (§6) Compounds isolated from P. elisabethae were tested against a panel of microorganisms including the bacteria Staphylococcus aureus ATCC 375, Enterococcus faecalis ATCC 10741, Pseudomonas aeruginosa ATCC 14210 and the yeast Candida albicans ATCC 14035. Bacterial strains were cultured in Luria-Bertani Broth (LB) and C. albicans was cultured in Sabouraud dextrose broth (SD), for 18 h at 37 °C and 220 rpm in a humidified incubator.
(§7) The antimicrobial activity was determined by a microdilution method (IC50) in 96-well microtiter plates using LB media for bacteria and SD media for the yeast seeded liquid media. In all cases, a pre-inoculated dilution was made with fresh broth. A volume of 180 μL of each microorganism suspension was inoculated in each well (10^5 cells/mL) and mixed with 20 μL of treatment solutions. Stock solutions were prepared by dissolving pure compounds and controls in 20% DMSO and storing at 4 °C. Penicillin G (S. aureus), vancomycin (E. faecalis), gentamicin (P. aeruginosa) and nystatin (C. albicans) were used as positive controls and vehicle (DMSO + media) as blank. The final DMSO concentration used for dissolving the extracts was less than 20%. Controls and test compounds (PsG, PsP, PsQ, PsS, PsT, PsU, 3-O-Ac-PsU, seco-PsJ, seco-PsK and IMNGD) were assayed in duplicate for each of the following concentrations: 64.0, 32.0, 16.0, 4.0, 1.0, 0.25 and 0.06 μg/mL.
(§8) Microplates were incubated for 24 h at 37 °C and optical density was recorded using a BioTek Synergy HT microplate reader to measure the absorbance at 600 nm. For each experiment, correction for background absorbance was made by subtracting the value for OD600 after the compounds were added (time 0 h). Percentages of microorganism survival relative to vehicle control wells (wells containing only microorganism and DMSO) were calculated. The IC50 of the controls were also determined in parallel experiments in order to control for the sensitivity of the standard test organisms.
as §5

MCF-7 (breast cancer) = assay: MTT cytotoxic assay, MCF-7; assay type: cell-based; settings: Homo sapiens, MCF7, 48 h
Protocol: as §1, §2, §3, §4, §5

HeLa (cervical cancer) = assay: MTT cytotoxic assay, HeLa; assay type: cell-based; settings: Homo sapiens, 48 h
Protocol: as §1, §2, §3, §4, §5

PC-3 (prostate cancer) = assay: MTT cytotoxic assay, PC-3; assay type: cell-based; settings: Homo sapiens, PC-3, 48 h
Protocol: as §1, §2, §3, §4, §5

[3] = test system: Staphylococcus aureus ATCC 375; assay: Antimicrobial microdilution assay, S. aureus; assay type: cell-based; settings: ATCC375, 24 h
Protocol: as §6, §7, §8, §5

[4] = Enterococcus faecalis, ATCC10741, E. faecalis, microdilution, 24 h, read-out: IC50 ± S.E

| IC50 [2, 4] | IC50 [3] | SMILES | GI50 [1] | GI50 (BJ (skin fibroblasts)) | GI50 (BJ (skin fibroblasts); listed as 3-O-acetyl-PsU) | GI50 (MCF-7 (breast cancer)) | GI50 (HeLa (cervical cancer)) | GI50 (PC-3 (prostate cancer)) | GI50 (BJ (skin fibroblasts); Homo sapiens, Skin fibroblast) | GI50 ([1]; footnote ** unit) | GI50 (BJ (skin fibroblasts); Homo sapiens, Skin fibroblast, footnote ** unit) | GI50 (MCF-7 (breast cancer); footnote ** unit) | GI50 (HeLa (cervical cancer); footnote ** unit) | GI50 (PC-3 (prostate cancer); footnote ** unit) | IC50 ([2]; Enterococcus faecalis, ATCC10741, 24 h, read-out: IC50 ± S.E, E. faecalis, microdilution, 24 h) | IC50 ([2]; read-out: IC50 ± S.E, E. faecalis, microdilution, 24 h) |
| --- | --- | --- | --- | --- | --- | --- | --- | --- | --- | --- | --- | --- | --- | --- | --- | --- |
| 4.38 ± 0.16 µM | 5.39 ± 0.25 µM | CC(C)=C[C@@H]1C[C@H](C)[C@H]2CC[C@H](C)c3c(O)c(O[C@@H]4OC[C@@H](O)[C@@H](O)[C@@H]4O)c(C)c1c32 [PsT] | 24.2 ± 0.42 µM | 12.9 ± 0.37 µM | – | 14.7 ± 0.46 µM | 14.6 ± 0.35 µM | 22 ± 0.46 µM | > 10 µM | – | – | – | – | – | – | – |
| 3.19 ± 0.25 µM | 2.97 ± 0.17 µM | CC(=O)OC1COC(Oc2c(C)c3c4c(c2O)C(C)CCC4C(C)CC3C=C(C)C)C(O)C1O (centres unmarked) [PsU] | 23.4 ± 0.4 µM | – | – | 26.5 ± 0.46 µM | 15.6 ± 0.32 µM | 24.8 ± 0.34 µM | 9.35 ± 0.34 µM | – | – | – | – | – | – | – |
| 4.08 ± 0.19 µM | 6.52 ± 0.12 µM | CC(C)=CCC[C@H](C)[C@H]1CC[C@H](C)c2c1cc(C)c(O[C@@H]1OC[C@@H](O)[C@@H](O)[C@@H]1O)c2O [seco-PsJ] | 31.7 ± 0.32 µM | 15 ± 0.35 µM | – | 28 ± 0.51 µM | 21.1 ± 0.37 µM | 37.2 ± 0.41 µM | > 10 µM | – | – | – | – | – | – | – |
| 3.82 ± 0.21 µM | 4.2 ± 0.16 µM | CC(C)=CCC[C@H](C)[C@H]1CC[C@H](C)c2c1cc(C)c(O[C@@H]1O[C@@H](C)[C@@H](O)[C@@H](O)[C@@H]1O)c2O [seco-PsK] | 13.3 ± 0.27 µM | – | – | 11.5 ± 0.36 µM | 15.8 ± 0.18 µM | 13.6 ± 0.38 µM | 8.28 ± 0.29 µM | – | – | – | – | – | – | – |

Second part, the molecule before the results:

| SMILES | IC50 [2, 4] | IC50 [3] | GI50 [1] | GI50 (BJ (skin fibroblasts)) | GI50 (BJ (skin fibroblasts); listed as 3-O-acetyl-PsU) | GI50 (MCF-7 (breast cancer)) | GI50 (HeLa (cervical cancer)) | GI50 (PC-3 (prostate cancer)) | GI50 (BJ (skin fibroblasts); Homo sapiens, Skin fibroblast) | GI50 ([1]; footnote ** unit) | GI50 (BJ (skin fibroblasts); Homo sapiens, Skin fibroblast, footnote ** unit) | GI50 (MCF-7 (breast cancer); footnote ** unit) | GI50 (HeLa (cervical cancer); footnote ** unit) | GI50 (PC-3 (prostate cancer); footnote ** unit) | IC50 ([2]; Enterococcus faecalis, ATCC10741, 24 h, read-out: IC50 ± S.E, E. faecalis, microdilution, 24 h) | IC50 ([2]; read-out: IC50 ± S.E, E. faecalis, microdilution, 24 h) |
| --- | --- | --- | --- | --- | --- | --- | --- | --- | --- | --- | --- | --- | --- | --- | --- | --- |
| CC(=O)OC1COC(Oc2c(C)c3c4c(c2O)C(C)CCC4C(C)CC3C=C(C)C)C(O)C1OC(C)=O (centres unmarked) [3-O-Ac-PsU] | 7.64 ± 0.16 µM | 20.23 ± 0.19 µM | 20.5 ± 0.48 µM | 62.03 ± 0.45 µM | > 10 µM | 83.93 ± 0.39 µM | 44.61 ± 0.35 µM | 26.4 ± 0.31 µM | – | – | – | – | – | – | – | – |
| CC1(C)S[C@@H]2[C@H](NC(=O)Cc3ccccc3)C(=O)N2[C@H]1C(=O)O [Penicillin G, penicillin G, reference compound] | – | 1.61 ± 0.08 µM | – | – | – | – | – | – | – | – | – | – | – | – | – | – |
| CC(C)=C[C@@H]1C[C@H](C)[C@H]2CC[C@H](C)c3c(O[C@@H]4O[C@@H](C)[C@@H](O)[C@@H](O)[C@@H]4O)c(O)c(C)c1c32 [PsG] | 3.14 ± 0.22 µM | 4.48 ± 0.18 µM | 12 ± 0.36 µM | – | – | 9.42 ± 0.43 µM | 9.22 ± 0.45 µM | 8.83 ± 0.54 µM | 7.62 ± 0.38 µM | – | – | – | – | – | – | – |
| CC(C)=C[C@@H]1C[C@H](C)[C@H]2CC[C@H](C)c3c(O)c(O[C@@H]4O[C@@H](C)[C@@H](O)[C@@H](O)[C@@H]4O)c(C)c1c32 [PsP] | 37.35 ± 0.29 µM | 14.9 ± 0.2 µM | 17.9 ± 0.45 µM | 10.4 ± 0.42 µM | – | 12.6 ± 0.45 µM | 10.3 ± 0.49 µM | 13.8 ± 0.58 µM | > 10 µM | – | – | – | – | – | – | – |
| CC(=O)O[C@H]1[C@@H](O)[C@H](O)[C@H](Oc2c(C)c3c4c(c2O)[C@@H](C)CC[C@@H]4[C@@H](C)C[C@H]3C=C(C)C)O[C@H]1C [PsQ] | 7.38 ± 0.16 µM | 3.3 ± 0.2 µM | 7.66 ± 0.27 µM | – | – | 8.44 ± 0.41 µM | 5.82 ± 0.33 µM | 7.81 ± 0.35 µM | 4.47 ± 0.31 µM | – | – | – | – | – | – | – |
| CC(=O)O[C@@H]1[C@H](Oc2c(C)c3c4c(c2O)[C@@H](C)CC[C@@H]4[C@@H](C)C[C@H]3C=C(C)C)O[C@@H](C)[C@@H](O)[C@H]1O [PsS] | 20.2 ± 0.25 µM | 3.89 ± 0.23 µM | 33.5 ± 0.33 µM | – | – | 26.2 ± 0.45 µM | 13.8 ± 0.39 µM | 52.05 ± 0.31 µM | – | – | – | – | – | – | – | – |
| CN[C@@H]1C[C@H]2O[C@@](C)([C@@H]1OC)n1c3ccccc3c3c4c(c5c6ccccc6n2c5c31)C(=O)NC4 [Staurosporine, staurosporine, reference compound] | – | – | – | – | – | – | – | – | – | 0.04556 ± 0.00045 µM | 0.0136 ± 0.00035 µM | 0.1766 ± 0.00038 µM | 0.1056 ± 0.00041 µM | 0.06182 ± 0.00038 µM | – | – |
| CN[C@H](CC(C)C)C(=O)N[C@H]1C(=O)N[C@@H](CC(N)=O)C(=O)N[C@H]2C(=O)N[C@H]3C(=O)N[C@H](C(=O)N[C@H](C(=O)O)c4cc(O)cc(O)c4-c4cc3ccc4O)[C@H](O)c3ccc(c(Cl)c3)Oc3cc2cc(c3O[C@@H]2O[C@H](CO)[C@@H](O)[C@H](O)[C@H]2O[C@H]2C[C@](C)(N)[C@H](O)[C@H](C)O2)Oc2ccc(cc2Cl)[C@H]1O [Vancomycin, vancomycin, reference compound] | – | – | – | – | – | – | – | – | – | – | – | – | – | – | 4.2 µM | 4.21 ± 0.11 µM |
